Measurements as given in ChEMBL document CHEMBL1201862, “PubChem BioAssay data set” (2004).
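96-well plates; 48 h exposure; 5 concentrations. Endpoints by linear interpolation between flanking doses. Not reached: highest tested concentration assigned. GI50: concentration for 50% inhibition of growth.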 Calls of active or inactive are those of the source. Rule as the data show it: active = GI50 up to about 1.1 µM and inactive = higher.

Tests used:
Assay in all cases: NCI-60 cell line screen, 48 h
TK-10 = tested on: TK-10
SK-MEL-2 = tested on: SK-MEL-2
NCI-H460 = tested on: NCI-H460
M14 = tested on: M14
RXF 393 = tested on: RXF 393
KM12 = tested on: KM12
SF-295 = tested on: SF-295
HT-29 = tested on: HT-29
SK-OV-3 = tested on: SK-OV-3
CAKI-1 = tested on: CAKI-1
PC-3 = tested on: PC-3
HCT-15 = tested on: HCT-15
NCI-H226 = tested on: NCI-H226
A498 = tested on: A498
COLO 205 = tested on: COLO 205
IGROV-1 = tested on: IGROV-1
SNB-19 = tested on: SNB-19
RPMI-8226 = tested on: RPMI-8226
DU-145 = tested on: DU-145
MCF7 = tested on: MCF7
HCC 2998 = tested on: HCC 2998
OVCAR-8 = tested on: OVCAR-8
LOX IMVI = tested on: LOX IMVI
SR = tested on: SR
SW-620 = tested on: SW-620
SF-268 = tested on: SF-268
HOP-62 = tested on: HOP-62
NCI/ADR-RES = tested on: NCI/ADR-RES
UO-31 = tested on: UO-31
SK-MEL-28 = tested on: SK-MEL-28
SNB-75 = tested on: SNB-75
U-251 = tested on: U-251
MDA-MB-435 = tested on: MDA-MB-435
CCRF-CEM = tested on: CCRF-CEM
EKVX = tested on: EKVX
Hs-578T = tested on: Hs-578T
HCT-116 = tested on: HCT-116
786-0 = tested on: 786-0
UACC-257 = tested on: UACC-257
SK-MEL-5 = tested on: SK-MEL-5
T47D = tested on: T47D
K562 = tested on: K562
ACHN = tested on: ACHN
HOP-92 = tested on: HOP-92
SF-539 = tested on: SF-539
MOLT-4 = tested on: MOLT-4
UACC-62 = tested on: UACC-62
MDA-MB-231 = tested on: MDA-MB-231
OVCAR-4 = tested on: OVCAR-4
HL-60 = tested on: HL-60
NCI-H23 = tested on: NCI-H23
BT-549 = tested on: BT-549
SN12C = tested on: SN12C
A549 = tested on: A549
OVCAR-5 = tested on: OVCAR-5
NCI-H522 = tested on: NCI-H522
Malme-3M = tested on: Malme-3M
OVCAR-3 = tested on: OVCAR-3

In the case of CC1=NN(c2nc(N)nc(/C(C#N)=C/c3ccncc3)n2)C(C)(C)C1, the GI50 (TK-10) is reported as > 100 µM (inactive), the GI50 (SK-MEL-2) is reported as > 100 µM (inactive) and the GI50 (NCI-H460) is reported as > 100 µM (inactive). For the same molecule, the GI50 (M14) was > 100 µM (inactive), the GI50 (RXF 393) was 32 µM (inactive) and the GI50 (KM12) was > 100 µM (inactive). The GI50 (SF-295) was > 100 µM (inactive), the GI50 (HT-29) was > 100 µM (inactive) and the GI50 (SK-OV-3) was > 100 µM (inactive). For the same molecule, the GI50 (CAKI-1) was > 100 µM (inactive), the GI50 (PC-3) was > 100 µM (inactive) and the GI50 (HCT-15) was greater than 100 µM. For the same molecule, the GI50 (NCI-H226) was > 100 µM (inactive), the GI50 (A498) was 60.3 µM (inactive) and the GI50 (COLO 205) was > 100 µM (inactive). For the same molecule, the GI50 (IGROV-1) was > 100 µM (inactive), the GI50 (SNB-19) was > 100 µM (inactive) and the GI50 (RPMI-8226) was > 100 µM (inactive). The GI50 (DU-145) was 47.4 µM (inactive), the GI50 (MCF7) was 91.8 µM (inactive) and the GI50 (HCC 2998) was > 100 µM (inactive). The GI50 (OVCAR-8) was > 100 µM (inactive), the GI50 (LOX IMVI) was > 100 µM (inactive) and the GI50 (SR) was 74.6 µM (inactive). For the same molecule, the GI50 (SW-620) was > 100 µM (inactive), the GI50 (SF-268) was > 100 µM (inactive) and the GI50 (HOP-62) was > 100 µM (inactive). The GI50 (NCI/ADR-RES) was > 100 µM (inactive), the GI50 (UO-31) was > 100 µM (inactive) and the GI50 (SK-MEL-28) was > 100 µM (inactive). For the same molecule, the GI50 (SNB-75) was > 100 µM (inactive), the GI50 (U-251) was > 100 µM (inactive) and the GI50 (MDA-MB-435) was > 100 µM (inactive). The GI50 (CCRF-CEM) was 49.3 µM (inactive), the GI50 (EKVX) was > 100 µM (inactive) and the GI50 (Hs-578T) was > 100 µM (inactive). For the same molecule, the GI50 (HCT-116) was > 100 µM (inactive), the GI50 (786-0) was > 100 µM (inactive) and the GI50 (UACC-257) was > 100 µM (inactive). For the same molecule, the GI50 (SK-MEL-5) was > 100 µM (inactive), the GI50 (T47D) was > 100 µM (inactive) and the GI50 (K562) was 13.5 µM (inactive). For the same molecule, the GI50 (ACHN) was > 100 µM (inactive), the GI50 (HOP-92) was > 100 µM (inactive) and the GI50 (SF-539) was > 100 µM (inactive). For the same molecule, the GI50 (MOLT-4) was > 100 µM (inactive), the GI50 (UACC-62) was > 100 µM (inactive) and the GI50 (MDA-MB-231) was > 100 µM (inactive). The GI50 (OVCAR-4) was > 100 µM (inactive), the GI50 (HL-60) was 52.1 µM (inactive) and the GI50 (NCI-H23) was > 100 µM (inactive). For the same molecule, the GI50 (BT-549) was > 100 µM (inactive).

For O=C(O)c1ccc(Oc2nc3ccccc3s2)cc1, the GI50 (TK-10) was > 100 µM (inactive), the GI50 (SK-MEL-2) was > 100 µM (inactive) and the GI50 (SN12C) was > 100 µM (inactive). For the same molecule, the GI50 (NCI-H460) was > 100 µM (inactive), the GI50 (A549) was > 100 µM (inactive) and the GI50 (M14) was > 100 µM (inactive). For the same molecule, the GI50 (RXF 393) was > 100 µM (inactive), the GI50 (KM12) was > 100 µM (inactive) and the GI50 (SF-295) was > 100 µM (inactive). The GI50 (HT-29) was > 100 µM (inactive), the GI50 (SK-OV-3) was > 100 µM (inactive) and the GI50 (CAKI-1) was > 100 µM (inactive). For the same molecule, the GI50 (PC-3) was > 100 µM (inactive), the GI50 (HCT-15) was greater than 100 µM and the GI50 (NCI-H226) was > 100 µM (inactive). For the same molecule, the GI50 (A498) was > 100 µM (inactive), the GI50 (COLO 205) was > 100 µM (inactive) and the GI50 (IGROV-1) was > 100 µM (inactive). The GI50 (OVCAR-5) was > 100 µM (inactive), the GI50 (SNB-19) was > 100 µM (inactive) and the GI50 (RPMI-8226) was 74 µM (inactive). For the same molecule, the GI50 (DU-145) was > 100 µM (inactive), the GI50 (MCF7) was > 100 µM (inactive) and the GI50 (NCI-H522) was > 100 µM (inactive). The GI50 (OVCAR-8) was > 100 µM (inactive), the GI50 (LOX IMVI) was > 100 µM (inactive) and the GI50 (SR) was 85.7 µM (inactive). For the same molecule, the GI50 (SW-620) was > 100 µM (inactive), the GI50 (SF-268) was > 100 µM (inactive) and the GI50 (HOP-62) was > 100 µM (inactive). The GI50 (NCI/ADR-RES) was > 100 µM (inactive), the GI50 (UO-31) was > 100 µM (inactive) and the GI50 (SK-MEL-28) was > 100 µM (inactive). For the same molecule, the GI50 (U-251) was > 100 µM (inactive), the GI50 (MDA-MB-435) was > 100 µM (inactive) and the GI50 (CCRF-CEM) was > 100 µM (inactive). For the same molecule, the GI50 (EKVX) was > 100 µM (inactive), the GI50 (Hs-578T) was 64.4 µM (inactive) and the GI50 (HCT-116) was > 100 µM (inactive). For the same molecule, the GI50 (786-0) was > 100 µM (inactive), the GI50 (Malme-3M) was > 100 µM (inactive) and the GI50 (UACC-257) was > 100 µM (inactive). For the same molecule, the GI50 (SK-MEL-5) was > 100 µM (inactive), the GI50 (T47D) was > 100 µM (inactive) and the GI50 (K562) was > 100 µM (inactive). The GI50 (OVCAR-3) was > 100 µM (inactive), the GI50 (ACHN) was > 100 µM (inactive) and the GI50 (HOP-92) was 87.9 µM (inactive). For the same molecule, the GI50 (SF-539) was > 100 µM (inactive), the GI50 (MOLT-4) was > 100 µM (inactive) and the GI50 (UACC-62) was > 100 µM (inactive). The GI50 (MDA-MB-231) was > 100 µM (inactive), the GI50 (OVCAR-4) was > 100 µM (inactive) and the GI50 (HL-60) was > 100 µM (inactive). For the same molecule, the GI50 (NCI-H23) was > 100 µM (inactive) and the GI50 (BT-549) was > 100 µM (inactive).
